Patent EP4745137A1 (Gluetacs Therapeutics (Shanghai) Co., Ltd., priority 2023, dated 2025)

Legend:
WEE1 = target: T1, WEE1 (Homo sapiens, UniProt P30291+Q96SW2); test: Western-blot assay of substrate protein degradation in hPBMCs, WEE1; assay type: cell-based; conditions: 24 hours of compound treatment, compounds tested at 50 nM and 500 nM (concentration of the table not stated)
T1 construct: endogenous in cells; host or cells: hPBMCs (Milecell Biotechnologies)

CK1α = target: T2, CK1α (Homo sapiens, UniProt P48729+Q96SW2); test: Western-blot assay of substrate protein degradation in hPBMCs, CK1α; assay type: cell-based; conditions: 24 hours of compound treatment, compounds tested at 50 nM and 500 nM (concentration of the table not stated)
T2 construct: endogenous in cells; host or cells: hPBMCs (Milecell Biotechnologies)

IKZF2 = target: T3, IKZF2 (Homo sapiens, UniProt Q96SW2+Q9UKS7); test: Western-blot assay of substrate protein degradation in hPBMCs, IKZF2; assay type: cell-based; conditions: 24 hours of compound treatment, compounds tested at 50 nM and 500 nM (concentration of the table not stated)
T3 construct: endogenous in cells; host or cells: hPBMCs (Milecell Biotechnologies)

IKZF3 = target: T4, IKZF3 (Homo sapiens, UniProt Q96SW2+Q9UKT9); test: Western-blot assay of substrate protein degradation in hPBMCs, IKZF3; assay type: cell-based; conditions: 24 hours of compound treatment, compounds tested at 50 nM and 500 nM (concentration of the table not stated)
T4 construct: endogenous in cells; host or cells: hPBMCs (Milecell Biotechnologies)

GSPT1 = target: T5, GSPT1 (Homo sapiens, UniProt P15170+Q96SW2); test: Western-blot assay of substrate protein degradation in hPBMCs, GSPT1; assay type: cell-based; conditions: 24 hours of compound treatment, compounds tested at 50 nM and 500 nM (concentration of the table not stated)
T5 construct: endogenous in cells; host or cells: hPBMCs (Milecell Biotechnologies)

[1] = target: T6, human Cereblon WT GST-tagged protein (Homo sapiens, UniProt Q96SW2); test: CRBN-binding affinity by HTRF (CEREBLON BINDING kit); conditions: HTRF inhibitory activity, CEREBLON BINDING kit; read-out: HTRF IC50
T6 construct: purchased CISBIO 64BDCRBNPEH

IKZF1 = target: T7, IKZF1 (Homo sapiens, UniProt Q13422+Q96SW2); test: Western-blot assay of substrate protein degradation in hPBMCs, IKZF1; assay type: cell-based; conditions: 24 hours of compound treatment, compounds tested at 50 nM and 500 nM (concentration of the table not stated)
T7 construct: endogenous in cells; host or cells: hPBMCs (Milecell Biotechnologies)
T7 sequence (Q13422 whole entry): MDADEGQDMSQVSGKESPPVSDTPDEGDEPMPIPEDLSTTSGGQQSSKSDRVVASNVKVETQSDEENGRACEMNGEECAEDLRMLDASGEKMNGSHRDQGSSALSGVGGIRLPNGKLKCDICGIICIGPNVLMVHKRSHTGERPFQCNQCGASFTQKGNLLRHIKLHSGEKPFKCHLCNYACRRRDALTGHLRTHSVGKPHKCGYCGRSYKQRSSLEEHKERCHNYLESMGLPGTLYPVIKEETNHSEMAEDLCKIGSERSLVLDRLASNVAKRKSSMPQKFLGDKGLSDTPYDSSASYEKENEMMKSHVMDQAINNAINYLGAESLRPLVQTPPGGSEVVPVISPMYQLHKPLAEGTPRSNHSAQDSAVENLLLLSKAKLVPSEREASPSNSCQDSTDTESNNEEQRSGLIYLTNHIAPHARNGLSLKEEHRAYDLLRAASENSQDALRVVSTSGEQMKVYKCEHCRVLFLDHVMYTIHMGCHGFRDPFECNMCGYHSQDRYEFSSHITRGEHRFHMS
T7 sequence (Q96SW2 whole entry): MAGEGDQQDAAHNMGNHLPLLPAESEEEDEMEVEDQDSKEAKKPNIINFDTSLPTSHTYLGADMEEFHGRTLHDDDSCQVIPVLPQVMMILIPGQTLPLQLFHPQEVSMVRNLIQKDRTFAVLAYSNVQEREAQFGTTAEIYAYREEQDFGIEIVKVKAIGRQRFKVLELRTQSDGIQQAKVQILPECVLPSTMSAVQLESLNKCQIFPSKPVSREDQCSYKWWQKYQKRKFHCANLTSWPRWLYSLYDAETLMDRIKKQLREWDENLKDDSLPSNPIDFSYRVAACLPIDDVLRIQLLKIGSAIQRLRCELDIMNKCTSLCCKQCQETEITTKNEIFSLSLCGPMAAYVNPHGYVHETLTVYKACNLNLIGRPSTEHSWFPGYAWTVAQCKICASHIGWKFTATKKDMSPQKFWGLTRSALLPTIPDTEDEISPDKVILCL
T7 sequence (Q16531 whole entry partner): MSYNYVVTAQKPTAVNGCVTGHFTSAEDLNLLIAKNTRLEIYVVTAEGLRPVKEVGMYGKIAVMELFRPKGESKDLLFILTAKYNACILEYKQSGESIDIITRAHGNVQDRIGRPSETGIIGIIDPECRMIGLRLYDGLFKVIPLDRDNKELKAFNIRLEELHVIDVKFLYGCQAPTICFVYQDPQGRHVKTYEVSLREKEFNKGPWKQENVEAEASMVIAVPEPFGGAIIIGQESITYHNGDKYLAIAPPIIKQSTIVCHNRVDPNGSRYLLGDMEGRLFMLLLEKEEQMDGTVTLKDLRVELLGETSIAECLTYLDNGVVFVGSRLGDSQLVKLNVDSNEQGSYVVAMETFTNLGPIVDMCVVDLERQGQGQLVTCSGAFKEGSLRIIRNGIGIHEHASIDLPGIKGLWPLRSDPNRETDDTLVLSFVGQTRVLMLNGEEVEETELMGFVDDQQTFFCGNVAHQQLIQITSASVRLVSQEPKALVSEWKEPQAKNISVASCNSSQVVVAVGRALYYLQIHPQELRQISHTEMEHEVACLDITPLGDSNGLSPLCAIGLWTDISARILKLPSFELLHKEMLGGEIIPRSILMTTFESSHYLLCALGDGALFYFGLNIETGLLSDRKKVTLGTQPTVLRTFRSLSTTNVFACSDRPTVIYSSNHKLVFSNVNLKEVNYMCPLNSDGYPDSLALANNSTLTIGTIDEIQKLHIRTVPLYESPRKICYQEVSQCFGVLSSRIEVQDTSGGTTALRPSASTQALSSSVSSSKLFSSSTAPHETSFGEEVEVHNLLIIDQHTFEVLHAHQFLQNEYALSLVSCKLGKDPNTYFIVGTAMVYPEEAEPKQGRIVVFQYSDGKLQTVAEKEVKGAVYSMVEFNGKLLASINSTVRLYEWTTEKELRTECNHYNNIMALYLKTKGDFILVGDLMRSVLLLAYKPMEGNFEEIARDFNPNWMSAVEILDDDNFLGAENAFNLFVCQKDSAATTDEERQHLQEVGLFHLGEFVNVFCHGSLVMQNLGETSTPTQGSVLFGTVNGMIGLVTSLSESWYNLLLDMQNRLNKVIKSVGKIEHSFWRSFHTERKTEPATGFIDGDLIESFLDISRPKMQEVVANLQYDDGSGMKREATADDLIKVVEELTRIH

T4 sequence (Q9UKT9 whole entry): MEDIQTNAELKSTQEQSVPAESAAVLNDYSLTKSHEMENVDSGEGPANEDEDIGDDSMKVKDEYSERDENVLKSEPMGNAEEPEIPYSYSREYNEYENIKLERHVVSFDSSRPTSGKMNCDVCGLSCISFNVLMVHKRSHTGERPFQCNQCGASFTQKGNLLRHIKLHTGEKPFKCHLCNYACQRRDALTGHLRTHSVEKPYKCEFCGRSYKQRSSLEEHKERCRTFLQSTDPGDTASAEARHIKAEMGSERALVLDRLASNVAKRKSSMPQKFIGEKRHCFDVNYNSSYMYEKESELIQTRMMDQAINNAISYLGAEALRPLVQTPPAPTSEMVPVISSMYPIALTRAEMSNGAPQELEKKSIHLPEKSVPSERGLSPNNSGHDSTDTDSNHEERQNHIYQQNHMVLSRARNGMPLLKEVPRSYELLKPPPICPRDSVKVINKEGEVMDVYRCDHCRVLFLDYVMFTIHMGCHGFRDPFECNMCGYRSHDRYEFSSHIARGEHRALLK
T4 sequence (Q96SW2 whole entry): as the sequence (Q96SW2 whole entry) above
T4 sequence (Q16531 whole entry partner): as the sequence (Q16531 whole entry partner) above
T2 sequence (P48729 whole entry): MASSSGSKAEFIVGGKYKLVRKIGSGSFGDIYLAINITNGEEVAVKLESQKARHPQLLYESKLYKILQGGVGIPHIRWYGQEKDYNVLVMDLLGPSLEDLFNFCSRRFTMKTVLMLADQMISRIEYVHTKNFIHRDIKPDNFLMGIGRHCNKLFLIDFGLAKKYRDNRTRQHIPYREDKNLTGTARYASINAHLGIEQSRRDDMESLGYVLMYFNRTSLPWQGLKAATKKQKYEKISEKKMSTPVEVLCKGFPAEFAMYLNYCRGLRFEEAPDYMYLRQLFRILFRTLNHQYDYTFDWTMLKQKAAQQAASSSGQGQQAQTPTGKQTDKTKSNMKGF
T2 sequence (Q96SW2 whole entry): as the sequence (Q96SW2 whole entry) above
T2 sequence (Q16531 whole entry partner): as the sequence (Q16531 whole entry partner) above
T5 sequence (P15170 whole entry): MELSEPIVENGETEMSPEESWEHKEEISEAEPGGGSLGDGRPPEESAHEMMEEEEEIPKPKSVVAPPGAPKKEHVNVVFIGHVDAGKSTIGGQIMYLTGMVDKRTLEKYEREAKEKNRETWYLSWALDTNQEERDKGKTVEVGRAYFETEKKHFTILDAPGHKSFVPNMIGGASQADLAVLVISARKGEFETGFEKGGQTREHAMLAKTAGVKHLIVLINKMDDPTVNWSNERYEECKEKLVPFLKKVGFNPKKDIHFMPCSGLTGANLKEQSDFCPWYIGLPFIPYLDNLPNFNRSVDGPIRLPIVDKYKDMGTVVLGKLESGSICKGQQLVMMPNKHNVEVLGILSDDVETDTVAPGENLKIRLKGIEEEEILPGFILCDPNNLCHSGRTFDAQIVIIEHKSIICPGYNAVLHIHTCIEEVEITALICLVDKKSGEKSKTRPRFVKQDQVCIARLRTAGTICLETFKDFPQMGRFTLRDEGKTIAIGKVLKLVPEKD
T5 sequence (Q96SW2 whole entry): as the sequence (Q96SW2 whole entry) above
T5 sequence (Q16531 whole entry partner): as the sequence (Q16531 whole entry partner) above
T3 sequence (Q9UKS7 whole entry): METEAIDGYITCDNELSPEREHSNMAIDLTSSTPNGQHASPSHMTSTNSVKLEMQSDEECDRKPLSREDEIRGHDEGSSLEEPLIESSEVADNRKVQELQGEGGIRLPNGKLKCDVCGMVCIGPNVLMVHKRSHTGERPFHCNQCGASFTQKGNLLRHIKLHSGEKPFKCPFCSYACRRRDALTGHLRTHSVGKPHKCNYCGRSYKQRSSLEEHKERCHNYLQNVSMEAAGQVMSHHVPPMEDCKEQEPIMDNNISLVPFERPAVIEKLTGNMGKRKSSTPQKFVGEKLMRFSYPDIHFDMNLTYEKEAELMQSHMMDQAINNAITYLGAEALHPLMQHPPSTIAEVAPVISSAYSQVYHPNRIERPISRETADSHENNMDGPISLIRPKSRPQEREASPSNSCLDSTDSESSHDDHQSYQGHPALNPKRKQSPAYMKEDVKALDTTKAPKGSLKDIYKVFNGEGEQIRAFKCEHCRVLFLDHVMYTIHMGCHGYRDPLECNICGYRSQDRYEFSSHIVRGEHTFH
T3 sequence (Q96SW2 whole entry): as the sequence (Q96SW2 whole entry) above
T3 sequence (Q16531 whole entry partner): as the sequence (Q16531 whole entry partner) above
T6 sequence (Q96SW2 whole entry): as the sequence (Q96SW2 whole entry) above

IC50 [1] | SMILES | Weel substrate protein remaining % (WEE1) | CK1a substrate protein remaining % (CK1α) | IKZF2 substrate protein remaining % (IKZF2) | IKZF3 substrate protein remaining % (IKZF3) | GSPT1 substrate protein remaining % (GSPT1) | IKZF 1 substrate protein remaining % (IKZF1)
0.5 to 1 µM | O=C1CCC(N2Cc3c(CN4CCN(c5cccc(Cl)c5Cl)CC4)cccc3C2=O)C(=O)N1 (stereo not shown) [GT-04528, 3-(4-((4-(2,3-dichlorophenyl)piperazin-1-yl)methyl)-1-oxoisoindolin-2-yl)piperidine-2,6-dione] | A (0% ≤ substrate protein remaining % ≤ 80%) | B (80%< substrate protein remaining %≤ 100%) | B (80%< substrate protein remaining %≤ 100%) | B (80%< substrate protein remaining %≤ 100%) | B (80%< substrate protein remaining %≤ 100%) | B (80%< substrate protein remaining %≤ 100%)
0.5 to 1 µM | O=C1CCC(N2Cc3cc(CN4CCN(c5ccc(Cl)nc5)CC4)ccc3C2=O)C(=O)N1 (stereo not shown) [GT-04537, 3-(5-((4-(6-chloropyridin-3-yl)piperazin-1-yl)methyl)-1-oxoisoindolin-2-yl)piperidine-2,6-dione] | A (0% ≤ substrate protein remaining % ≤ 80%) | A (0% ≤ substrate protein remaining % ≤ 80%) | A (0% ≤ substrate protein remaining % ≤ 80%) | A (0% ≤ substrate protein remaining % ≤ 80%) | A (0% ≤ substrate protein remaining % ≤ 80%) | A (0% ≤ substrate protein remaining % ≤ 80%)
0.5 to 1 µM | Cc1cc(N2CCN(Cc3ccc4c(c3)CN(C3CCC(=O)NC3=O)C4=O)CC2)ccn1 (stereo not shown) [GT-04541, 3-(5-((4-(2-methylpyridin-4-yl)piperazin-1-yl)methyl)-1-oxoisoindolin-2-yl)piperidine-2,6-dione] | A (0% ≤ substrate protein remaining % ≤ 80%) | B (80%< substrate protein remaining %≤ 100%) | A (0% ≤ substrate protein remaining % ≤ 80%) | A (0% ≤ substrate protein remaining % ≤ 80%) | B (80%< substrate protein remaining %≤ 100%) | A (0% ≤ substrate protein remaining % ≤ 80%)
< 0.5 µM | O=C1CCC(N2Cc3cc(CN4CCN(c5ccnc(Cl)c5Cl)CC4)ccc3C2=O)C(=O)N1 (stereo not shown) [GT-04542, 3-(5-((4-(2,3-dichloropyridin-4-yl)piperazin-1-yl)methyl)-1-oxoisoindolin-2-yl)piperidine-2,6-dione] | A (0% ≤ substrate protein remaining % ≤ 80%) | B (80%< substrate protein remaining %≤ 100%) | A (0% ≤ substrate protein remaining % ≤ 80%) | A (0% ≤ substrate protein remaining % ≤ 80%) | A (0% ≤ substrate protein remaining % ≤ 80%) | A (0% ≤ substrate protein remaining % ≤ 80%)
0.5 to 1 µM | O=C1CCC(N2Cc3cc(CN4CCC(c5ccnc(F)c5F)CC4)ccc3C2=O)C(=O)N1 (stereo not shown) [GT-04556, 3-(5-((4-(2,3-difluoropyridin-4-yl)piperidin-1-yl)methyl)-1-oxoisoindolin-2-yl)piperidine-2,6-dione] | A (0% ≤ substrate protein remaining % ≤ 80%) | A (0% ≤ substrate protein remaining % ≤ 80%) | A (0% ≤ substrate protein remaining % ≤ 80%) | A (0% ≤ substrate protein remaining % ≤ 80%) | A (0% ≤ substrate protein remaining % ≤ 80%) | A (0% ≤ substrate protein remaining % ≤ 80%)
1 to 1.5 µM | O=C1CCC(N2Cc3cc(CN4CCN(c5ncccc5F)CC4)ccc3C2=O)C(=O)N1 (stereo not shown) [GT-04578, 3-(5-((4-(3-fluoropyridin-2-yl)piperazin-1-yl)methyl)-1-oxoisoindolin-2-yl)piperidine-2,6-dione] | B (80%< substrate protein remaining %≤ 100%) | A (0% ≤ substrate protein remaining % ≤ 80%) | A (0% ≤ substrate protein remaining % ≤ 80%) | B (80%< substrate protein remaining %≤ 100%) | A (0% ≤ substrate protein remaining % ≤ 80%) | B (80%< substrate protein remaining %≤ 100%)
1.5 to 1.9 µM | O=C1CCC(N2Cc3cc(CN4CCN(c5nccc(F)c5F)CC4)ccc3C2=O)C(=O)N1 (stereo not shown) [GT-04579, 3-(5-((4-(3,4-difluoropyridin-2-yl)piperazin-1-yl)methyl)-1-oxoisoindolin-2-yl)piperidine-2,6-dione] | B (80%< substrate protein remaining %≤ 100%) | A (0% ≤ substrate protein remaining % ≤ 80%) | B (80%< substrate protein remaining %≤ 100%) | B (80%< substrate protein remaining %≤ 100%) | B (80%< substrate protein remaining %≤ 100%) | B (80%< substrate protein remaining %≤ 100%)

Continued, compound first:

SMILES | IC50 [1] | Weel substrate protein remaining % (WEE1) | CK1a substrate protein remaining % (CK1α) | IKZF2 substrate protein remaining % (IKZF2) | IKZF3 substrate protein remaining % (IKZF3) | GSPT1 substrate protein remaining % (GSPT1) | IKZF 1 substrate protein remaining % (IKZF1)
O=C1CCC(N2Cc3cc(CN4CCN(c5cc(Cl)nnc5Cl)CC4)ccc3C2=O)C(=O)N1 (stereo not shown) [GT-04500, 3-(5-((4-(3,6-dichloropyridazin-4-yl)piperazin-1-yl)methyl)-1-oxoisoindolin-2-yl)piperidine-2,6-dione] | 0.5 to 1 µM | A (0% ≤ substrate protein remaining % ≤ 80%) | A (0% ≤ substrate protein remaining % ≤ 80%) | A (0% ≤ substrate protein remaining % ≤ 80%) | A (0% ≤ substrate protein remaining % ≤ 80%) | A (0% ≤ substrate protein remaining % ≤ 80%) | A (0% ≤ substrate protein remaining % ≤ 80%)
O=C1CCC(N2Cc3cc(CN4CCN(c5ncnc(Cl)c5Cl)CC4)ccc3C2=O)C(=O)N1 (stereo not shown) [GT-04501, 3-(5-((4-(5,6-dichloropyrimidin-4-yl)piperazin-1-yl)methyl)-1-oxoisoindolin-2-yl)piperidine-2,6-dione] | < 0.5 µM | A (0% ≤ substrate protein remaining % ≤ 80%) | A (0% ≤ substrate protein remaining % ≤ 80%) | A (0% ≤ substrate protein remaining % ≤ 80%) | A (0% ≤ substrate protein remaining % ≤ 80%) | A (0% ≤ substrate protein remaining % ≤ 80%) | A (0% ≤ substrate protein remaining % ≤ 80%)
O=C1CCC(N2Cc3cc(CN4CCN(c5cccnc5)CC4)ccc3C2=O)C(=O)N1 (stereo not shown) [GT-04508, 3-(1-oxo-5-((4-(pyridin-3-yl)piperazin-1-yl)methyl)isoindolin-2-yl)piperidine-2,6-dione] | 0.5 to 1 µM | A (0% ≤ substrate protein remaining % ≤ 80%) | B (80%< substrate protein remaining %≤ 100%) | A (0% ≤ substrate protein remaining % ≤ 80%) | A (0% ≤ substrate protein remaining % ≤ 80%) | A (0% ≤ substrate protein remaining % ≤ 80%) | A (0% ≤ substrate protein remaining % ≤ 80%)
O=C1CCC(N2Cc3cc(CN4CCN(c5ccnc(F)c5F)CC4)ccc3C2=O)C(=O)N1 (stereo not shown) [GT-04543, 3-(5-((4-(2,3-difluoropyridin-4-yl)piperazin-1-yl)methyl)-1-oxoisoindolin-2-yl)piperidine-2,6-dione] | 0.5 to 1 µM | A (0% ≤ substrate protein remaining % ≤ 80%) | B (80%< substrate protein remaining %≤ 100%) | A (0% ≤ substrate protein remaining % ≤ 80%) | A (0% ≤ substrate protein remaining % ≤ 80%) | A (0% ≤ substrate protein remaining % ≤ 80%) | A (0% ≤ substrate protein remaining % ≤ 80%)
O=C1CCC(N2Cc3cc(CN4CCN(c5nccc(I)c5F)CC4)ccc3C2=O)C(=O)N1 (stereo not shown) [GT-04557, 3-(5-((4-(3-fluoro-4-iodopyridin-2-yl)piperazin-1-yl)methyl)-1-oxoisoindolin-2-yl)piperidine-2,6-dione] | 0.5 to 1 µM | A (0% ≤ substrate protein remaining % ≤ 80%) | A (0% ≤ substrate protein remaining % ≤ 80%) | A (0% ≤ substrate protein remaining % ≤ 80%) | A (0% ≤ substrate protein remaining % ≤ 80%) | A (0% ≤ substrate protein remaining % ≤ 80%) | A (0% ≤ substrate protein remaining % ≤ 80%)
O=C1CCC(N2Cc3cc(CN4CCN(c5ccncc5Br)CC4)ccc3C2=O)C(=O)N1 (stereo not shown) [GT-04580, 3-(5-((4-(3-bromopyridin-4-yl)piperazin-1-yl)methyl)-1-oxoisoindolin-2-yl)piperidine-2,6-dione] | 0.5 to 1 µM | A (0% ≤ substrate protein remaining % ≤ 80%) | A (0% ≤ substrate protein remaining % ≤ 80%) | A (0% ≤ substrate protein remaining % ≤ 80%) | A (0% ≤ substrate protein remaining % ≤ 80%) | B (80%< substrate protein remaining %≤ 100%) | A (0% ≤ substrate protein remaining % ≤ 80%)
